For one data set, the system named is Bladder Tissue. As to the kind of experiment: Relaxation of KCl-stimulated isolated rat bladder strips (contractile activity). Set-up: species or system Sprague-Dawley rats. Conditions: Rattus norvegicus, 0.5 h. On the procedure: Sprague-Dawley rats (150-200 g) are rendered unconscious by CO2 asphyxiation and then euthanized by cervical dislocation. The bladder is removed into warm (37° C.) physiological salt solution (PSS) of the following composition (mM): NaCl, 118.4; KCl, 4.7; CaCl2, 2.5; […]; NaHCO3, 24.9; KH2PO4, 1.2; glucose, 11.1; EDTA, 0.023; gassed with 95% O2; […]; pH 7.4. The bladder is opened and then cut into strips 1-2 mm in width and 7-10 mm in length. The strips are subsequently suspended in a 10 mL tissue bath under an initial resting tension of 1.5 g. The strips are held in place by two surgical clips one of which is attached to a fixed hook while the other is attached to an isometric force transducer. […] The carbachol is then washed out and the tissue allowed to relax to its resting level of activity. Following a further 30 min period of recovery an additional 15 mM KCl re introduced into the tissue bath. […] Following stabilization of this enhanced level of contractile activity, incremental increases in the concentration of test compound or vehicle are introduced into the tissue bath. Contractile activity is measured for each compound or vehicle concentration during the last minute of a 30 minute challenge.

For a further data set, the system named is whole rat bladder. The data set is described as follows: Relaxation of whole rat bladder ex-vivo (partial outlet obstruction, developed bladder pressure). On the set-up: species or system Spraque-Dawley rats. Conditions: isolated whole bladder of rats 6 weeks after partial outlet obstruction, 30 minute challenge. On the procedure: Several compound in this invention were tested for their ability to relax a whole rat bladder ex-vivo. The protocol for this assay is as follows.
Female Spraque-Dawley rats weighing between 200-300 g were anesthetized with Nembutol® (50 mg/kg, i.p.). After achieving adequate anesthesia, the bladder and urethra were exposed through a mid-line incision. A 4-0 silk ligature was tied around the proximal end of the urethra in the presence of a 1 mm diameter stainless steel rod. The rod was then removed resulting in a partial outlet obstruction. The wound was closed with surgical staples and the animals received 15,000 units of Bicillin® antibiotic. After a 6 week period the animals were asphyxiated with CO2 gas. Bladders for contractile analysis were placed in a physiological salt solution (PSS) at 37° C. of the following composition (in mM): NaCl (118.4), KCl (4.7), CaCl2 (2.5), MgSO4 (1.2), KH2PO4 (1.2), NaHCO3 (24.9) and D-glucose (11.1) gassed with […] to achieve a pH of 7.4.
The isolated bladders were secured through the urethral opening with a silk ligature to a length of polyethylene tubing (PE-200). […]
Following stabilization, incremental increases in the concentration of test compound or vehicle are introduced into the tissue bath. Contractile activity is measured for each compound or vehicle concentration during the last minute of a 30 minute challenge.

Another data set relates to Aorta Tissue. The data set is described as follows: Relaxation of KCl-contracted isolated rat thoracic aortic rings (contractile force). Set-up: species or system Sprague-Dawley rats. Conditions: for IC50: Rattus norvegicus; for Ratio Aorta IC50 / Bladder IC50: aorta IC50 divided by bladder IC50, tissue selectivity. Here is the method:
The smooth muscle (aorta) relaxing activity of the compounds of this ivention was established in accordance with standard pharmaceutically accepted test procedures with representative compounds as follows.
Male Sprague-Dawley rats (150-200 g) are rendered unconscious by CO2 asphyxiation and then euthanized by cervical dislocation. The thoracic aorta is removed into warm (37° C.) physiological sial solution (PSS) of the following composition (mM): NaCl, 118.4; KCl, 4.7; CaCl2, 2.5; MgSO4.7H2O, 1.2; NaHCO3, 24.9; KH2PO4, 1.2; glucose, 11.1; EDTA, 0.023; gassed with 95% O2/5% CO2; pH 7.4. The aorta is cleaned of fat and loose adventitia and cut into rings 3-4 mm in width. The rings are subsequently suspended between two stainless steel wire tissue holders in a 10 mL tissue bath. One wire tissue holder is attached to a fixed hook while the other is attached to an isometric force transducer. Resting tension is set at 1 g. The tissues are to recover for a period of 60 min prior to beginning the experiment. Tissues are challenged with PSS containing 25 mM KCl to elicit a contracture. The tissues are then washed repeatedly with fresh PSS over a period of 30 min and allowed to recover to baseline tension. PSS containing 30-35 mM KCl is then introduced into the tissue bath to evoke a contracture that is allowed to stabilize for not less than 45 min. (Other stimuli such as norepinephrine, PGF2a, histamine, angiotensin II, endothelin or PSS containing 80 mM KCl may also be used to evoke a contracture as necessary). Increasing concentrations of test compound or vehicle are then added to the tissue bath in a cumulative fashion.
Isometric force development by the aortic rings is measured using a force transducer and recorded on a polygraph. The percentage inhibition of contractile force evoked by each concentration of a given test compound is used to generate a concentration-response curve. […] [Log concentration versus response curves are approximately linear between 20% and 80% of the maximum response. As such, the IC50 concentration of the drug is determined by linear regression analysis (where x=log concentration and y=% inhibition) of the data points in the 20% to 80% region of the curve.] […] Data collected from 2 animals are averaged for primary screens.

The structures appear in SMILES notation.

`CC1(C)c2ccc([N+](=O)[O-])cc2-c2[nH]c3c(C(=O)O)cccc3c21` [Example 24, 10,10-Dimethyl-3-nitro-5,10-dihydro-indeno[1,2-b]indole-6-carboxylic acid]: the melting point was 310 °C (dec.). The compound further came in with a 50% inhibitory concentration (IC50) with Bladder Tissue of 5.2 ± 1.8 µM. The same compound returned an IC50 with whole rat bladder of 5 µM. Also, in the data set on Aorta Tissue, the IC50 was determined as 17.2 ± 2.3 µM and the “Ratio Aorta IC50 / Bladder IC50” value amounted to 3.3.
`O=C(O)c1cccc2c1[nH]c1c3cc(I)ccc3oc21` [Example 2, 8-Iodo-10H-benzo[4,5]furo[3,2-b]indole-1-carboxylic acid]: the melting point was 297 °C (dec.). Further, the half-maximal inhibitory concentration (IC50) in the data set on Bladder Tissue turned out to be 6.1 ± 3 µM. In addition, in the data set with Aorta Tissue, the IC50 stood at 128 ± 16.9 µM and the “Ratio Aorta IC50 / Bladder IC50” value is 21.

As usually defined, the IC50 is the concentration needed to halve the response being measured. Low values mean inhibition by little substance, high ones a need for much substance. The melting point is the temperature, or range, at which the solid turns liquid.

The values are drawn from patent US6391902B1, “Substituted benzofuranoindoles and indenoindoles as novel potassium channel openers” (American Home Products Corporation, priority 1998, dated 2002).
